In PubChem BioAssay AID2116 (The Scripps Research Institute Molecular Screening Center, 2009) one finds EC50 data, which are given here for two molecules.

The EC50 is the midpoint of the concentration-response curve.

This experiment deals with Mucolipin-3 (Homo sapiens) (UniProt Q8TDD5). Nature of the experiment: activators of mucolipin-3 and mucolipin-2 – cell-based, patch clamp, Fura-2 profiling panel (AID 2116). Conditions: HEK293 cells expressing TRPML3-YFP, TRPML3 Dose Response.
Sequence of Mucolipin-3 (Homo sapiens) (Q8TDD5 whole entry, looked up): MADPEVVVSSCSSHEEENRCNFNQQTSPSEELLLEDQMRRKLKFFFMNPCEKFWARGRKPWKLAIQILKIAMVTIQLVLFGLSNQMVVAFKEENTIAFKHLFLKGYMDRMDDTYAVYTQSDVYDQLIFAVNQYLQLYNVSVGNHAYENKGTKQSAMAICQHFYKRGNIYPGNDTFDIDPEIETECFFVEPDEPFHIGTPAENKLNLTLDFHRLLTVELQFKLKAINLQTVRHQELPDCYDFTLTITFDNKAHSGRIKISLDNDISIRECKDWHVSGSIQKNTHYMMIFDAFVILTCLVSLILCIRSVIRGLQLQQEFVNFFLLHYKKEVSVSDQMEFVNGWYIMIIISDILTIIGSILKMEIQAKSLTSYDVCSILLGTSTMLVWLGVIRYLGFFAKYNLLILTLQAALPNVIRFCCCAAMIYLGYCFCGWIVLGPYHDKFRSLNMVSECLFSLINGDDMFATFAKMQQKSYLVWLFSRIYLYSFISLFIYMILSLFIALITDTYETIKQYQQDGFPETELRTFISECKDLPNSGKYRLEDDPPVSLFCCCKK

On to `O=S(=O)(Nc1ccccc1N1CCOCC1)c1ccc(Cl)s1`, for which the EC50 is 1090 nM.

With `O=S(=O)(NC1CCCCC1N1CCOCC1)c1ccc(Cl)cc1` (configuration not stated), the EC50 was 450 nM.
